Consider one compound from US20030100109A1, “Methods and compositions for in vitro germination and propagation of polygonatum cirrhifolium royle” (priority 2001, published 2003).

For this test, the system named is Polygonatum cirrhifolium Royle seeds. The experiment in a line: Induction of germination (hypocotyl emergence) on modified MS medium with GA3 at diurnal 30/20° C. in dark. The test is classed as in vivo. The conditions noted are these: modified MS culture medium, 20/30° C. in dark. The protocol: Ripe purplish berries from plants grown in the wild were collected and dehydrated for 15 days at room temperature (29° C.±2° C.). Seeds were collected from dehydrated berries and washed in tap water with 1-2 drops of Tween-20™ for 2 hours and rinsed three times in distilled water. Seeds were then surface sterilized with 0.1% mercuric chloride (HgCl2) for 3 minutes. Mercuric chloride was removed by washing seeds four times in sterile distilled water. Sterilized, rinsed seeds were placed on semi-solid culture medium in sterile disposable plastic Petri plates (10 cm×2 cm). Macro and micro nutrients in the basal medium were that of Murashige and Skoog's (Murashige, T. and Skoog, F. […]. Physiol Plant 15: 433 -497) but modified to contain 2.2 g/L NH4NO3, 2.0 g/L KNO3, 0.44 g/l CaCl2.2H2O, 0.37 g/L MgSO4.7H20, 0.17 g/L KH2PO4, 37.25 mg/L Na2 EDTA, 27.8 mg/L FeSO4.7H20, 0.83 mg/L KI, 6.2 mg/L H3BO3, 22.3 mg/L MnSO4.4H20, 8.6 mg/L ZnSO4.7H20, 0.25 mg/L Na2 MoO4.2H20, 0.025 mg/L CuSO4.5H2O, 0.025 mg/L CoCl2.6H20. This medium was supplemented with 250 mg/L myo-inosital, 0.5 mgl/l nicotinic acid, 0.5 mg/L pyridoxine HCl, 3 mg/L thiamine HCl, 2 mg/L glycine, 30 g/L sucrose, 7.5 g/L agar and 2, 10, 25, and 50 mg/L gibberellic acid. The pH of the medium was adjusted to 5.8 before adding agar. Medium was sterilized at 121° C. (15 lb. psi pressure) for 20 minutes. […] Seeds with emerged hypocotyl were transferred under aseptic conditions to the above defined basal culture medium containing gibberellic acid at 5, 25, 50 and 100 mg/L. Transferred plants were incubated in an environment having 8-16-hr days under about 2000 lux of light and about 8-16-hr nights in total darkness at a constant temperature of 20° C. ([…]) and at 50-60% RH. Illumination was provided by 40-watt cool, white fluorescent tubes. Germination synchronization as indicated by differentiated epicotyl with emergent coleoptile and radicle was recorded on daily basis. Tables 1 and 2 show the induction of germination as indicated by the emergence of hypocotyl at temperature of 30° C. (±2° C.; dark; RH 50-60%) and diurnal temperature of 30/20° C. (±2° C.; dark; RH 50-60%). In this experiment also there were 4 treatments with varying levels of GA3 2-50 mg/L. Supplemented to the modified MS basal culture medium containing of 2.2 g/L NH4NO3, 2.0 g/L KNO3, 0.44 g/l CaCl2.2H2O, 0.37 g/L MgSO4.7H20, 0.17 g/L KH2PO4, 37.25 mg/L Na2 EDTA, 27.8 mg/L FeSO4.7H20, 0.83 mg/L KI, 6.2 mg/L H3BO3, 22.3 mg/L MnSO4.4H20, 8.6 mg/L ZnSO4.7H20, 0.25 mg/L Na2 MoO4.2H20, 0.025 mg/L CuSO4.5H2O, 0.025 mg/L CoCl2.6H20, […], 0.5 mg/L nicotinic acid, 0.5 mg/L pyridoxine HCl, 3 mg/L thiamine HCl, 2 mg/L glycine, 30 g/L sucrose and 7.5 g/L agar. Cultures were incubated under diurnal temperature regime of 30/20° C. (dark). Each treatment consisted of 15 replicates with 5 seeds in each. Germination is induced in all the treatments (table 2). Maximum germination of 62.12% is obtained at 50 mg/L Of GA3.

The structures appear in SMILES notation. Where “and” joins values, the source holds several entries; their conditions need not be identical. Identical values can stand only once.

As to `C=C1C[C@]23C[C@@]1(O)CC[C@H]2[C@@]12C=C[C@H](O)[C@@](C)(C(=O)O1)[C@H]2[C@@H]3C(=O)O` [GA3, gibberellic acid], the Duration of germination is, setting by setting: (GA3 2 mg/L) 32-73; (GA3 10 mg/L) 34-72; (GA3 25 mg/L) 27-63; (GA3 50 mg/L) 23-58. The Percent germination by setting is: (GA3 2 mg/L) 12.41 ± 6.17%; (GA3 10 mg/L) 18.06 ± 4.32%; (GA3 25 mg/L) 46.00 ± 5.11%; (GA3 50 mg/L) 62.12% and 62.12 ± 3.66%.
